Key:
Format in all cases: cell-based, human
[1] = system: undifferentiated iPSCs (2.038); assay: Generation of definitive endoderm (DE) from undifferentiated iPSCs with or without CHIR; details: for CXCR4/CD117 co-expressing cells / Output DE Day 7: 2 μM CHIR (+)
Experimental: Undifferentiated iPSCs maintained using Essential 8 on Matrigel were plated at a seeding density of 13,000 cells/cm^2 on Matrigel. Four days-post-plating, the cells were placed in 90% RPMI/10% SFD media containing 100 ng/mL Activin A for one day followed by incubation with 90% RPMI/10% SFD supplemented with 100 ng/mL Activin A, 2.5 ng/mL BMP4, 10 ng/mL VEGF, and 10 ng/mL zebrafish FGF2 for the next two days. From day 4-12, the cells were placed in SFD media supplemented with 100 ng/mL Activin A, 2.5 ng/mL BMP4, 10 ng/mL VEGF, and 10 ng/mL zebrafish FGF2. Supplementation with 2 μM CHIR was included in one set at day 1 of differentiation while it was omitted in another set. The cells were harvested on day 7 using TrypLE. The total viable cell number post digestion was determined at each time point. The percentage of CXCR4, CD117 co-expressing cells was determined by cell surface staining by flow cytometry (Table 1). The absolute number of CXCR4/CD117 double-positive cells was calculated. The ratio of input iPSC to output DE was also quantified (Table 1).

[2] = system: beta cells derived from 2.038AT4 cells; assay: C-peptide release assay (glucose responsiveness) of end-stage beta cells
Experimental: C-peptide release assays were performed as previously described (D'Amour et al., 2006) using a Mercodia Ultrasensitive C-peptide ELISA kit (Mercodia). Briefly, aggregates that were beyond day 25 in the beta cell differentiation protocol from each iPSC clone were placed in a millicell PCF insert within a 24 well plate. The aggregates were equilibrated in 1 ml KRBH medium for one hour at 37° C. and 5% CO2, 20% O2. The aggregates were next placed in a second well containing 0.5 ml KRBH medium supplemented with serially increasing levels of glucose from 1-20 mM. Each incubation lasted for 20 mins at 37° C. and 5% CO2, 20% O2. Extreme care was taken to drain the aggregates of all residual fluid between well transfers. The supernatant left behind was collected and stored at −20° C. At the end of the experiment the aggregates were digested with TryPLE and the total viable cell count per sample was determined to normalize the data. C-peptide secretion was normalized based on the total viable cell number taken for each sample.
C-peptide release assays were performed as described in Example 12. Beta cell cultures induced with Dox induction between days 10-15 generated a response to between 1-5 mM glucose (FIG. 28). […]
The experiment was performed again with the addition of Dox (1.5 μg/ml) between day 10-15 of beta cell differentiation. […] Glucagon expression was not recorded. […]

[3] = system: 2.038AT4 cells; assay: Beta cell differentiation of 2.038AT4 EPCs with Dox induction, intracellular flow cytometry; details: Dox 1.5 μg/ml between day 10-15, harvested day 15, repeat experiment
Experimental: 2.038AT4.14EGN (also called 2.038AT4) cells were maintained in Essential 8 under hypoxic conditions during DE induction without CHIR using 2.5 ng/ml BMP4. DE were maintained in EPC cycling media without MEFs under hypoxic conditions. Media was supplemented with neomycin (100 ug/ml) and puromycin (600 ng/ml) for iPSC culture, DE culture, and EPC cycling. At P7, EPC were harvested and MACS purification was performed using CD34/CXCR4/CD117. Purified cells were plated on neat Matrigel in the presence of a Rock inhibitor.
Beta cell differentiation was initiated 5 days post re-aggregation according to the protocol described by Nostro et al. (2011) further modified by Cheng et al. (2012a) in a 2D format. Dox was added at different stages of the beta cell differentiation process. Dox (1.5 μg/ml) induction was performed between days 6-15 of beta cell differentiation, between days 8-15 of beta cell differentiation, or between days 10-15 of beta cell differentiation. The cells were harvested on day 15 of beta cell differentiation, fixed, and stained for quantification of PDX/NeuroD1/C-peptide/Glucagon/Somatostatin by intracellular flow cytometry.
The experiment was performed again with the addition of Dox (1.5 μg/ml) between day 10-15 of beta cell differentiation. The cells were harvested on day 15 of beta cell differentiation and assayed for PDX/NeuroD1/C-Peptide/Glucagon/Somatostatin expression levels by intracellular flow cytometry. […] The total C-Peptide levels were around 10% of which 5% of cells appeared monohormonal. Glucagon expression was not recorded. C-peptide release assays were performed as described above. […] Both the Dox induced and un-induced beta cell cultures were capable of eliciting a dose-dependent response to glucose (FIG. 30).

[4] = system: 2.038AT4 cells; assay: qPCR analysis of ERG and GFI expression; details: Dox induction during beta cell differentiation
Experimental: The levels of ERG (FIG. 32A) and GFI (FIG. 32B) transcripts at different stages of the process were quantified from 2.038 and 2.038AT4 cells. Dox induction of 2.038AT4 cells was only applied at the beta cell differentiation stage. Cells from 2.038AT4 were always cultured in media containing neomycin (100 μg/mL) and puromycin (600 ng/mL) regardless of stage of differentiation. RNA was isolated from undifferentiated iPSC, DE, EPC, and beta cell cultures derived from 2.038 cells and 2.038AT4 cells using the RNeasy Plus Mini Kit from Qiagen (Catalog #74136) according to the manufacturer's directions. RNA quantification was performed using the Nanodrop 2000. RNA was reverse transcribed with the ImProm-II RT System from Promega (Catalog # A3800) according to manufacturer's directions. rt-qPCR was performed using TaqMan Gene Expression Master Mix (Catalog #4369016) and TaqMan probes (ERG: Hs01554629_m1; GFI1: Hs00382207_m1; GAPDH: Hs99999905_m1) with technical triplicates and run on the Roche LightCycler for 45 cycles. Fold induction was calculated by DeltaCp with normalization to GAPDH. Undifferentiated iPSCs of the same genetic background were used as negative controls. Whole pancreas RNA (Ambion Catalog # AM7954) and human islets provided by the UW Islet Core were used as positive controls.

Row | SMILES | CXCR4/CD117 co-expressing cells ([1]; cell line 2.038 (1131), format 6 well, harvested day 7) [%] | Output DE Day 7 ([1]; cell line 2.038 (1131), format 6 well, input iPSCs 1.95 ×10^6) | CXCR4/CD117 co-expressing cells ([1]; cell line 2.038, format T150, harvested day 7) [%] | Output DE Day 7 ([1]; cell line 2.038, format T150, input iPSCs 5.85 ×10^6) | Effect on efficiency of DE formation ([1]; CHIR added on day zero of endoderm induction) | Glucose concentration range of dose-dependent C-peptide response ([2]; Dox 1.5 μg/ml between day 10-15, repeat experiment, un-induced cultures also responded) [mM] | Glucose concentration range eliciting C-peptide response ([2]; Dox induction between days 10-15) [mM] | Monohormonal cells [3] [%] | PDX/NeuroD1 expression [3] | Total C-Peptide levels [3] | Level of ERG/GFI transcripts [4]
1 | Cc1c[nH]c(-c2cnc(NCCNc3ccc(C#N)cn3)nc2-c2ccc(Cl)cc2Cl)n1 [CHIR, CHIR99021] | 45 | 84 ×10^6 | 54 | 186 ×10^6 | did not result in increased efficiency of DE formation | – | – | – | – | – | –
2 | C[C@H]1c2cccc(O)c2C(=O)C2=C(O)[C@]3(O)C(=O)C(C(N)=O)=C(O)[C@@H](N(C)C)[C@@H]3[C@@H](O)[C@@H]21 [Dox, Doxycycline] | – | – | – | – | – | 1 to 15 | 1 to 5 | 5 | 25%-30 | around 10% | slight increase

Reference: patent US10266807B2, “Methods and compositions for culturing endoderm progenitor cells in suspension” (FUJIFILM Cellular Dynamics, Inc., priority 2013, dated 2019)
